Assay results as given in PubChem BioAssay (NCI).
Values joined by “and” are separate entries in the source; they are usually repeats but may differ in a detail not shown here. Equal values may be shown once.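 The compound was tested at five concentrations on cells cultured in 96-well plates, with a 48-hour exposure period. GI50 marks 50% less growth. At the TGI there is no net growth.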

Assays:
Experiment in all cases: NCI anticancer screen, dose series, 48 h
786-0 renal = tested on: 786-0 renal
A498 renal = tested on: A498 renal
HCC-2998 colon = tested on: HCC-2998 colon
HCT-15 colon = tested on: HCT-15 colon
HOP-62 NSCLC = tested on: HOP-62 NSCLC
M14 melanoma = tested on: M14 melanoma
MDA-MB-435 = tested on: MDA-MB-435
NCI-H226 lung = tested on: NCI-H226 lung
NCI-H23 lung = tested on: NCI-H23 lung
NCI-H522 lung = tested on: NCI-H522 lung
NCI/ADR-RES ovarian = tested on: NCI/ADR-RES ovarian
OVCAR-4 ovarian = tested on: OVCAR-4 ovarian
RPMI-8226 leukemia = tested on: RPMI-8226 leukemia
SF-539 CNS = tested on: SF-539 CNS
SNB-19 CNS = tested on: SNB-19 CNS
SR leukemia = tested on: SR leukemia
T-47D breast = tested on: T-47D breast

Compound | TGI (786-0 renal) | TGI (A498 renal) | TGI (HCC-2998 colon) | TGI (HCT-15 colon) | TGI (HOP-62 NSCLC) | TGI (M14 melanoma) | TGI (MDA-MB-435) | TGI (NCI-H226 lung) | TGI (NCI-H23 lung) | TGI (NCI-H522 lung) | TGI (NCI/ADR-RES ovarian) | TGI (OVCAR-4 ovarian) | TGI (RPMI-8226 leukemia) | TGI (SF-539 CNS) | TGI (SNB-19 CNS) | TGI (SR leukemia) | TGI (T-47D breast) | GI50 (M14 melanoma) | GI50 (MDA-MB-435)
CCCCC/C=C1\CCC(CN2CCOCC2)C1=O (stereo unspecified) | 7.17 µM | 33.9 µM | 27.7 µM | 21.8 µM | 54.5 µM | 16.9 µM | 17.8 µM | 33.5 µM | 29.8 µM | 5.18 µM | 54.6 µM | 48 µM | 3.02 µM | 30 µM | 32.4 µM | 12.1 µM | 9.95 µM | – | –
Cc1nc(SCC(=O)Nc2ccccc2)c2sc(=S)n(-c3ccccc3)c2n1 | > 10 µM | > 10 µM | > 10 µM | > 10 µM | > 10 µM | > 10 µM | > 10 µM | 8.99 µM | > 10 µM | > 10 µM | > 10 µM | > 10 µM | > 10 µM | > 10 µM | > 10 µM | > 10 µM | > 10 µM | – | –
C/C(=N/NC(=S)Nc1cccc(Cl)c1)c1cccc(/C(C)=N\NC(=S)Nc2cccc(Cl)c2)n1 | > 41.7 µM | > 100 µM | > 100 µM | > 100 µM | 23.8 µM | 7.76 µM | > 100 µM | 5.44 µM | > 38.5 µM | > 27 µM | > 100 µM | > 100 µM | 15.9 µM | 3.72 µM | > 100 µM | 4.56 µM | > 100 µM | – | –
CCCCCCCCCCCCCCCCCCNc1ccn(C2OC(COP(=O)(O)OCCCCCCCCCCCCCCCC)C(O)C2O)c(=O)n1 (stereo unspecified) | > 100 µM | > 100 µM | > 100 µM | > 100 µM | > 100 µM | > 100 µM | > 100 µM | > 100 µM | > 100 µM | > 100 µM | > 100 µM | > 100 µM | > 100 µM | > 100 µM | > 100 µM | > 100 µM | > 100 µM | – | –
COC(=O)c1ccc(NCc2cc(O)c3ccccc3c2O)cc1 | 46.5 µM | 36.7 µM | 39.9 µM | 28.8 µM | 32.5 µM | – | 4.63 µM | 40 µM | 30.3 µM | 43.8 µM | 94.3 µM | 25.9 µM | 15.1 µM | 28.6 µM | > 81.8 µM | 21.7 µM | 40.7 µM | – | –
CCOC(=O)c1c(N2CCOCC2)[nH]c(=O)c(C(c2ccc(N(C)C)cc2)c2c(O)c(C(=O)OCC)c(N3CCOCC3)[nH]c2=O)c1O | > 100 µM | > 100 µM | > 100 µM | > 100 µM | > 100 µM | > 100 µM | > 100 µM | > 100 µM | > 100 µM | > 100 µM | > 100 µM | > 100 µM | > 100 µM | > 100 µM | > 100 µM | > 100 µM | > 100 µM | – | –
CNC(=S)N/N=C(\C)c1ccc(OC)cc1O | > 100 µM | > 100 µM | > 100 µM | > 100 µM | > 100 µM | > 100 µM | > 100 µM | > 100 µM | > 100 µM | > 100 µM | > 100 µM | 94.2 µM | > 100 µM | > 100 µM | > 100 µM | > 100 µM | > 100 µM | – | –
CC(C)C(OC(=O)c1cc(NC(=S)c2ccccc2)ccc1Cl)C(C)C | 50.8 µM | 58.4 µM | > 53.1 µM | 74.4 µM | > 100 µM | > 84.8 µM | > 100 µM | 45.5 µM | 35.7 µM | 29.4 µM | > 100 µM | > 100 µM | > 73.5 µM | 65.5 µM | > 100 µM | > 60.8 µM | 29.5 µM | – | –
COc1ccc(C(=O)N=C2N(c3ccccc3)C(=Nc3ccccc3)C(=Nc3ccccc3)N2c2ccccc2)cc1 | 59.5 µM | 61.1 µM | > 100 µM | > 100 µM | 57.5 µM | > 65.2 µM | > 100 µM | > 100 µM | > 100 µM | > 100 µM | > 100 µM | 87.3 µM | > 100 µM | > 100 µM | > 100 µM | > 100 µM | > 100 µM | – | –
S=C(NNC1=NCCCCN1)Nc1ccccc1 | > 100 µM | > 100 µM | > 100 µM | > 100 µM | > 100 µM | > 100 µM | > 100 µM | > 100 µM | > 100 µM | > 100 µM | > 100 µM | – | > 100 µM | > 100 µM | > 100 µM | > 100 µM | > 100 µM | – | –
CC(=O)OCC1OC(Sc2nc(-c3ccc(C)cc3)c(C#N)c(=O)n2C2OC(COC(C)=O)C(OC(C)=O)C(OC(C)=O)C2OC(C)=O)C(OC(C)=O)C(OC(C)=O)C1OC(C)=O (stereo unspecified) | > 100 µM | > 100 µM | > 100 µM and 33.2 µM | > 100 µM | > 100 µM | > 100 µM | > 100 µM | > 100 µM | > 100 µM | > 100 µM | > 100 µM | – | > 100 µM | > 100 µM | > 100 µM | > 100 µM | > 100 µM | > 100 µM and 43.3 µM | > 100 µM and 34.7 µM
